Reference: patent publication US9139589B2, “Heteroaryls and uses thereof” (Millennium Pharmaceuticals, Inc., priority 2009, dated 2015)
pIC50: −log10 of the molar value.

Target: T1, PI3Kalpha (Homo sapiens, UniProt P42336)
T1 construct: His (N); host or cells: SF9 insect cells (baculovirus co-infection)
Assay: PI3K enzyme HTRF assay (PI3Kalpha)
Type: biochemical
Excerpt: Active phosphatidylinositol 3′ kinase (PI3K) enzyme is purified at Millennium Pharmaceuticals from SF9 insect cells (Invitrogen) co-infected with baculovirus containing amino-terminal His-tagged p110α and p85α expression constructs.
The PI3K enzyme HTRF® assay makes use of an energy transfer complex comprised of biotin-PI(3,4,5)P3, Europhium labeled anti-GST monoclonal antibody, a GST-tagged GRP1 pleckstrin homology (PH) domain, and Streptavidin-APC (allophycocyanin). Excitation of the Europium in the complex results in a stable time-resolved fluorescence resonance energy transfer (FRET) signal. Phosphatidylinositol 3,4,5 triphosphate (PI(3,4,5)P3, the product of PI3K, disrupts the energy transfer complex by competing with biotin-PI(3,4,5)P3 for binding to the GRP1 PH domain, resulting in a decreased fluorescent signal. Inhibitors of PI3K in the reaction prevent a decrease in the fluorescent signal.
PI3K enzyme (325 pM) is incubated with di-C8 PI(4,5)P2 substrate (3.5 μM, CellSignals, Inc.) in assay buffer (50 mM HEPES pH 7.0, 5 mM DTT, 150 mM NaCl, 10 mM β-glycerophosphate, 5 mM MgCl2, 0.25 mM sodium cholate, 0.001% CHAPS) containing 25 μM ATP and 0.5 μL of test compound (in 100% DMSO) at multiple concentrations in a final volume of 20.5 μL in 384 well plates for 30 min at 22-23° C. […] Fluorescent signal for each well is then measured on an LJL_Analyst (Molecular Devices). […]

T1 sequence (P42336 whole entry): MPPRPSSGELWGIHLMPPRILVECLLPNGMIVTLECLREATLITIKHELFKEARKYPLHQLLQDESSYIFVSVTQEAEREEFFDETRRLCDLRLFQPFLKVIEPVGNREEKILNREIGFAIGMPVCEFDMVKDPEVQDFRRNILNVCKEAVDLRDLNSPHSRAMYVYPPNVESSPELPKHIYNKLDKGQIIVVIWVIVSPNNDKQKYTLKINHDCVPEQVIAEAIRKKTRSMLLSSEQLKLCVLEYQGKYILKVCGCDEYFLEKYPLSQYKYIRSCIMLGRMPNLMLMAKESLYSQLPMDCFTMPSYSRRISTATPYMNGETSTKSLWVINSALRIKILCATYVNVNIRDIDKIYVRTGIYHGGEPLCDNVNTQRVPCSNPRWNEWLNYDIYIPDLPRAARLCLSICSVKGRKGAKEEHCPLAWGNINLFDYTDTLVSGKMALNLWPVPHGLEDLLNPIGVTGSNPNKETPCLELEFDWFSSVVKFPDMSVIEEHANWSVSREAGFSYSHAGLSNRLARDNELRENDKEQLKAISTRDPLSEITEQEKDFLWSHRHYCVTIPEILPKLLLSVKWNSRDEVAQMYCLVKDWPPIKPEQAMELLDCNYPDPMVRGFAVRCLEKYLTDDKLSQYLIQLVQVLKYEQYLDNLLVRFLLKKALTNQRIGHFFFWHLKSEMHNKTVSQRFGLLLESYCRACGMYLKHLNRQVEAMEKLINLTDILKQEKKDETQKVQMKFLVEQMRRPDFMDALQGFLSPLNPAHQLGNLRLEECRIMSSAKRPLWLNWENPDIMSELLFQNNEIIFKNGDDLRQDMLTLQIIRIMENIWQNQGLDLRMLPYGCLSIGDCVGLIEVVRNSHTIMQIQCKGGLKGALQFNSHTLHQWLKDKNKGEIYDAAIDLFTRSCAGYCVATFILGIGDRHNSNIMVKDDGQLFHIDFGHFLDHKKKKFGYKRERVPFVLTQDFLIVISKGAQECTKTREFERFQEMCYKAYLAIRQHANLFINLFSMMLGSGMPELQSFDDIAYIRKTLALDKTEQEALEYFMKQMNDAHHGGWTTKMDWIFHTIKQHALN
T1 sequence (P27986 whole entry partner): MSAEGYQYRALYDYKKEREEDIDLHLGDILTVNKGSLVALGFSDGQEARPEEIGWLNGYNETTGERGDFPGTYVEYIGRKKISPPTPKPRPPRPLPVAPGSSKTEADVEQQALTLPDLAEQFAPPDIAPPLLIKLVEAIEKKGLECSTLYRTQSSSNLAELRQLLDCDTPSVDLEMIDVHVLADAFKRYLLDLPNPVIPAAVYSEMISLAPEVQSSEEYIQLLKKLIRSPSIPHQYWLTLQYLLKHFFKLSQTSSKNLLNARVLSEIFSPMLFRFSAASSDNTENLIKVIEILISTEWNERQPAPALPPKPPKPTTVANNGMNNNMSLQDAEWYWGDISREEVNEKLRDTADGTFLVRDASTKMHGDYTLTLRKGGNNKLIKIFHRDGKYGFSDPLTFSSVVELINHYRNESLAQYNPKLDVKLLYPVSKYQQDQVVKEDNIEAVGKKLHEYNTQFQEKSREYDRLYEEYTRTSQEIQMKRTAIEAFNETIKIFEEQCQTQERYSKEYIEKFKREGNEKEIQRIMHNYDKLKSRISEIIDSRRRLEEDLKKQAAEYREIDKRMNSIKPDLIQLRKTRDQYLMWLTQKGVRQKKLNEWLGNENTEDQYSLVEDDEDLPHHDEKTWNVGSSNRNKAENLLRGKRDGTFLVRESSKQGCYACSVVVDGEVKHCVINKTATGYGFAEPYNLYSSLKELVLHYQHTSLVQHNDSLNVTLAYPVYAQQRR

pIC50: < 6.00
SMILES: CC(=O)Nc1cc(-c2nc(-c3ccccc3Cl)c(NC(C)=O)s2)ccn1 [Example C-1, N-{4-[5-(acetylamino)-4-(2-chlorophenyl)-1,3-thiazol-2-yl]pyridin-2-yl}acetamide]
